According to patent US10398142B2, “Polycationic amphiphiles as antimicrobial agents” (priority 2013, dated 2019):
Several values for one entry are separate records, joined by “and”; a condition that tells them apart may be missing. Equal values may be shown once. Read-outs that look alike come from different tables or passages of the source. Marks after values point to notes of the source that are not given here.

Legend:
[1] = tested on: red blood cells (defibrinated sheep blood); experiment: Hemolysis assay (Lysis20); conditions: Table 4; concentration at which less than 20% of red blood cells are lysed
Method: Hemolysis assays (Lysis20) were performed according to the procedure detailed in Peng, L., DeSousa, J., Su, Z., Novak, B. M., Nevzorov, A. A., Garland, E. R., and Melander, C., Inhibition of Acinetobacter baumannii biofilm formation on a methacrylate polymer containing a 2-aminoimidazole subunit, Chem. Comm. 2011, 47, 4896-4898. Defibrinated sheep blood was purchased from Hemostat Labs (DSB 100). Compounds representative of each class were serially diluted in sterile PBS from aqueous stock solutions and incubated with resuspended blood cells. The OD of the final suspensions were measured directly using plate reader. TritonX (1% by volume) served as a positive control (100% lysis marker) and sterile PBS served as a negative control (0% lysis marker).
Lysis20 indicates the concentration of compound (in μM) at which less than 20% of red blood cells are lysed.

[2] = tested on: E. faecalis biofilms; experiment: Minimum biofilm eradication concentration (MBEC), regrowth assay; format: cell-based, Enterococcus faecalis
Excerpt: (§1) A regrowth assay was used to establish the MBEC of a compound to evaluate the antibiofilm activity. See also H. Ceri, M. Olson, D. Morck, D. Storey, R. Read, A. Buret, B. Olson, Methods Enzymol. 2001, 337, 377.
(§2) Encouraged by the potency of the QACs against planktonic bacterial cells, the inventors then evaluated the efficacy of compound (12,2,12) against Staphylococcus aureus and Enterococcus faecalis biofilms. […] To both accurately evaluate the antibiofilm activity, a regrowth assay was utilized to establish the minimum biofilm eradication concentration (MBEC) of each compound.
(§3) Different biological assays were performed. For all biological assays, laboratory strains of methicillin-susceptible Staphylococcus aureus MSSA (SH1000), Enterococcus faecalis (OG1RF), Escherichia coli (MC4100), Pseudomonas aeruginosa (PAO1), community-acquired methicillin-resistant Staphylococcus aureus CA-MRSA (USA300-0114), and hospital-acquired methicillin-resistant Staphylococcus aureus HA-MRSA (ATCC 33591) were grown at 37° C. overnight from freezer stocks in 10 mL of the media indicated for each assay. All cultures, with the exception of E. faecalis, were grown with shaking at 250 rpm.
(§4) Minimum biofilm eradication concentration (MBEC) was also measured. To each well of a flat-bottomed 96-well plate (Corning 3370), 8 μL of overnight bacterial culture was brought to a volume of 200 μL with fresh media (BHI for S. aureus and MRSA, Todd Hewitt (TH) for E. faecalis). Plates were incubated statically for 24 hours at 37° C. to establish biofilms. After 24 hours, the wells were carefully emptied by inverting the plate and gently shaking. A pre-mixed solution of media and aqueous compound stock solution was added to each well and plates were incubated at 37° C. 16 hours after pre-established biofilms were treated with compound, the media from each well was removed, biofilms were washed three times with 200 μL PBS to remove planktonic cells, and biofilms were incubated overnight at 37° C. in 200 μL of fresh media to allow any viable cells to continue growing. The wells were then vigorously pipetted to resuspend the biofilm cells and the OD at 595 nm was measured using a plate reader (POLARstar Omega, BMG Labtech). Biofilms reaching a final OD of less than 0.1 were considered eradicated and the lowest concentration of antibiotic corresponded to the MBEC. Four replicates were completed for each concentration of compound as well as positive and negative controls.

[3] = tested on: CA-MRSA (USA300-0114) biofilms; experiment: as above; format: cell-based, Staphylococcus aureus; conditions: for MBEC CA-MRSA: Table 5, USA300-0114
Method: as §1, §3, §4

[4] = tested on: Enterococcus faecalis (OG1RF); experiment: Minimum inhibitory concentration (MIC), broth microdilution; format: cell-based; conditions: for MIC: read-out: MIC E. faecalis
Method: (§5) The term “minimum inhibitory concentration (MIC)” means the lowest concentration of an antimicrobial agent that will inhibit the visible growth of a microorganism after overnight incubation. MIC values against bacteria, for example, the Gram-positive Staphylococcus aureus and Enterococcus faecalis and the Gram-negative Escherichia coli and Pseudomonas aeruginosa were determined by standard methods.
(§6) With nearly three-dozen amphiphiles varying in structure and cationic nature synthesized, minimum inhibitory concentration (MIC) values against the Gram-positive Staphylococcus aureus and Enterococcus faecalis and the Gram-negative Escherichia coli and Pseudomonas aeruginosa were determined by standard methods. […] The commercially available antibacterial agent benzalkonium chloride (benzyldimethyldodecylammonium chloride, Bn,12) was tested for comparison. The broth microdilution for determining MIC values was performed as previously reported.
(§7) Different biological assays were performed. […] All cultures, with the exception of E. faecalis, were grown with shaking at 250 rpm.
(§8) Minimum inhibitory concentration (MIC) values against bacteria were measured using standard method. Compounds were serially diluted two-fold from an aqueous stock solution to yield twelve test concentrations. Overnight S. aureus, E. faecalis, E. coli, P. aeruginosa, CA-MRSA, and HA-MRSA cultures diluted to ca. 10^6 cfu/mL in Mueller-Hinton media and 100 μL were inoculated into each well of a U-bottom 96-well plate (BD Biosciences, BD351177) containing 100 μL of compound solution. Plates were incubated statically at 37° C. for 72 hours upon which time wells were evaluated visually for bacterial growth. The MIC was determined as the lowest concentration of compound resulting in no bacterial growth visible to the naked eye, based on the majority of three independent experiments. Positive and negative aqueous and media controls were conducted for each trial.

[5] = tested on: Staphylococcus aureus MSSA (SH1000); experiment: as above; format: cell-based
Method: as §5, §6, §7, §8

[6] = tested on: Pseudomonas aeruginosa (PAO1); experiment: as above; format: cell-based; conditions: for MIC: read-out: MIC P. aeruginosa
Method: as §5, §6, §7, §8

[7] = tested on: Escherichia coli (MC4100); experiment: as above; format: cell-based; conditions: for MIC: read-out: MIC E. coli
Method: as §5, §6, §7, §8

[8] = tested on: S. aureus (MSSA, SH1000) biofilms; experiment: Minimum biofilm eradication concentration (MBEC), regrowth assay; format: cell-based, Staphylococcus aureus; conditions: for MBEC MSSA: Table 5, SH1000
Excerpt: as §1, §2, §3, §4

[9] = tested on: CA-MRSA (USA300-0114); experiment: Minimum inhibitory concentration (MIC), broth microdilution; format: cell-based, Staphylococcus aureus
Method: as §7, §8

[10] = tested on: HA-MRSA (ATCC 33591); experiment: as above; format: cell-based, Staphylococcus aureus
Method: as §7, §8

[11] = Table 2, pre-established biofilm, ± values varied between 50 and 100 μM for the six trials
[12] = Table 1, read-out: MIC S. aureus
[13] = Table 4, SH1000, read-out: MIC MSSA
[14] = Table 4, USA300-0114, read-out: MIC CA-MRSA
[15] = Table 4, ATCC 33591, read-out: MIC HA-MRSA
[16] = table for compound (12,3,11-SH,3,12)
[17] = Table 3, read-out: MIC S. aureus

MIC ([4]; Table 1) [µM] | MIC [5, 12] [µM] | MIC ([6]; Table 1) [µM] | MIC ([7]; Table 1) [µM] | SMILES | Lysis20 [1] [µM] | MBEC E. faecalis [2, 11] | MBEC E. faecalis ([2]; Table 5) [µM] | MBEC CA-MRSA [3] [µM] | MIC [5, 13] [µM] | MBEC S. aureus [8, 11] | MBEC MSSA [8] [µM] | MIC [9, 14] [µM] | MIC [10, 15] [µM] | MIC ([4]; Table 3) [µM] | MIC [5, 17] [µM] | MIC ([6]; Table 3) [µM] | MIC ([7]; Table 3) [µM] | also measured
– | – | – | – | CCCCCCCCCCCC[N+](C)(C)CC[CH-][N+](C)(CCCCCCCCCCCS)CCC[N+](C)(C)CCCCCCCCCCCC (stereo not shown) [12,3,11-SH,3,12] | 16 | – | >200 | >200 | – | – | 200 | – | – | – | – | – | – | MBEC E. faecalis [2, 16]: >200 µM; MBEC USA300-0114 [3, 16]: >200 µM; MIC ([4]; Enterococcus faecalis, table for compound (12,3,11-SH,3,12)): 2 µM; MIC ([5]; Staphylococcus aureus, MSSA, Table 4, SH1000, read-out: MIC MSSA): 2 µM; MIC ([5]; Staphylococcus aureus, MSSA, table for compound (12,3,11-SH,3,12), read-out: MIC S. aureus): 2 µM; MIC ([6]; Pseudomonas aeruginosa, PAO1, table for compound (12,3,11-SH,3,12)): 8 µM; MIC ([7]; Escherichia coli, table for compound (12,3,11-SH,3,12)): 2 µM; MBEC S. aureus [8, 16]: 200 µM; MIC ([9]; Staphylococcus aureus, Table 4, USA300-0114, read-out: MIC CA-MRSA): 2 µM; MIC ([9]; Staphylococcus aureus, table for compound (12,3,11-SH,3,12), read-out: MIC USA300-0114): 2 µM; MIC ([10]; Staphylococcus aureus, Table 4, ATCC 33591, read-out: MIC HA-MRSA): 2 µM; MIC ([10]; Staphylococcus aureus, table for compound (12,3,11-SH,3,12), read-out: MIC ATCC 33591): 2 µM
– | – | – | – | C=CC[N+](C)(CCC[N+](C)(C)CCCCCCCCCCCC)CCC[N+](C)(C)CCCCCCCCCCCC.[Br-].[Br-].[Br-] [12,3,3A,3,12] | 8 | – | 75 ± 25 | 100 | 1 | – | 50 | 1 | 1 | 2 | 1 | 4 | 2 | –
– | – | – | – | CCCCCCCCCCCC[N+](C)(C)CCC[N+](C)(CCC[N+](C)(C)CCCCCCCCCCCC)Cc1ccccc1.[Br-].[Br-].[Br-] [12,3,Bn,3,12] | 8 | – | 100 | 200 | 2 | – | 100 | 1 | 1 | 1 | 1 | 2 | 1 | –
– | – | – | – | CCCCCCCCCCCCCCCC[N+](C)(C)CCCCC[N+](C)(C)CCCCCCCCCCCCCCCC.[Br-].[Br-] [16,5,16] | 4 | – | ≥200 | >200 | 2 | – | 200 | 8 | 1 | 2 | 2 | 32 | 16 | –
– | – | – | – | CCCCCCCCCCCC[N+](C)(C)CCC[N+](C)(CCCCCCCCCCCC)CCC[N+](C)(C)CCCCCCCCCCCC.[Br-].[Br-].[Br-] [12,3,12,3,12] | 4 | – | 200 | >200 | 0.5 | – | 100 | 1 | 1 | 1 | 0.5 | 4 | 1 | –
2 | 1 | 4 | 1 | CCCCCCCCCCCC[N+](C)(C)CCN(C)CC[N+](C)(C)CCCCCCCCCCCC.[Br-].[Br-] [12,2,0,2,12] | 8 | 100 µM | 100 | 100 | 1 | 75 ± 25^a μM | 75 ± 25 | 1 | 0.5 | 1 | 1 | 4 | 2 | –
1 | 1 | 4 | 2 | CCCCCCCCCCCC[N+](C)(C)CC[N+](C)(C)CCCCCCCCCCCC [12,2,12] | 8 | 75 μM and 75 ± 25^a μM | 50 | 200 | 1 | 75 μM and 75 ± 25^a μM | 75 ± 25 | 0.5 | 0.5 | – | – | – | – | –
– | – | – | – | CCCCCCCCCCCC[N+](C)(C)CCC[N+](C)(CCCC)CCC[N+](C)(C)CCCCCCCCCCCC.[Br-].[Br-].[Br-] [12,3,4,3,12] | 8 | – | 50 | 75 ± 25 | 1 | – | 75 ± 25 | 0.5 | 0.5 | 1 | 1 | 2 | 1 | –

SMILES | MIC ([4]; Table 1) [µM] | MIC [5, 12] [µM] | MIC ([6]; Table 1) [µM] | MIC ([7]; Table 1) [µM] | Lysis20 [1] [µM] | MBEC E. faecalis [2, 11] | MBEC E. faecalis ([2]; Table 5) [µM] | MBEC CA-MRSA [3] [µM] | MIC [5, 13] [µM] | MBEC S. aureus [8, 11] | MBEC MSSA [8] [µM] | MIC [9, 14] [µM] | MIC [10, 15] [µM] | MIC ([4]; Table 3) [µM] | MIC [5, 17] [µM] | MIC ([6]; Table 3) [µM] | MIC ([7]; Table 3) [µM] | also measured
CCCCCCCCCCCC[N+](C)(C)CC[N+](C)(C)CC[N+](C)(C)CCCCCCCCCCCC.[Br-].[Br-].[I-] [12,2,1,2,12] | ≤0.25 | ≤0.25 | 1 | 0.5 | 16 | 25 µM | >200 | ≥200 | 1 | 50 µM | 200 | 1 | 1 | – | – | – | – | MIC E. faecalis ([4]; Table 3): ≤0.25-4^a μM; MIC S. aureus ([5]; Table 3): ≤0.25-4^a μM; MIC P. aeruginosa ([6]; Table 3): 1-8^a μM; MIC E. coli ([7]; Table 3): 0.5-4^a μM
